According to patent US4183931A, “2-Ketoalkyl-4(3H)-quinazolinones” (Research Corporation, priority 1977, dated 1980):
Like-named read-outs stand apart in the source and are kept apart here.

What was measured:
[1] = Neuropharmacological Profile (NPP): general CNS observational screen (depression, righting reflex, ataxia); conditions: i.p., mice, score 0-8; for Depression: at 300 mg/kg
Method: Representative compounds according to the present invention were tested for central nervous system activity by Pharmakon Laboratories of Scranton, Pennsylvania. The battery of general observational procedures used is referred to herein as a Neuropharmacological Profile (NPP). Additionally, representative compounds were tested in the Anticonvulsant Screening Project of the National Institutes of Neurological and Communicative Disorders and Stroke (NINCDS) at the University of Utah under the direction of Dr. Ewart A. Swinyard.
(§1) The procedures for the determination of a neuropharmacological profile involved white male mice of the Carworth Farm Strain CF-1 weighing 18 to 22 grams. […] Intraperitoneal injections were administered in logarithmic progression and sequentially. The dose levels employed routinely were 10, 30, 100 and 300 mg/kg, using four male mice at each dose level. Since this test was conducted in a sequential manner, the first does administered was at 300 mg/kg. […] Approximately thirty-eight signs and symptoms of pharmacological activity can be identified.
(§2) The animals were observed continously for one hour and, if no signs of pharmacological or toxicological activity were present at the end of the first hour, they were intermittently checked for activity every fifteen minutes thereafter for two consecutive hours. […] The observation period began immediately following the injection and the animals were then continuously observed for three hours and intermittently checked thereafter for forty-eight hours. The animals were observed and signs and symptoms of pharmacological activity were recorded continuously until no further symptoms developed and until the symptoms that appeared were no longer present. […] In such instances, the animals were observed beyond this period until they returned to normal. Routinely, the number of animals alive at the end of the forty-eight hour observation period was recorded and the LD50 estimated.
The animals are free to move about for evaluation of spatial orientation, alertness and spontaneous motor activity.
(§3) Since this is a general CNS screening procedure, only peak effects were recorded. Certain measures of behavior and neurological deficit were scored in terms of intensity of effect, while most others were determined on an all or none basis. Thus, in scoring measures which were normally present, e.g., spontaneous activity and skin color, an increase in score from 4 to 8 was used to denote stimulation or enhancement of skin color, whereas a decrease in score from 4 to 0 indicated depression or cyanosis. For scoring measures normally absent, e.g., depression, righting reflex and ataxia, activity was reflected as an increase in score from 0 to 8. The 0 to 8 scale was rounded off so that the actual ratings are only 0, 2, 4, 6 and 8. The compounds were also evaluated for anticonvulsant activity by using the maximal electroshock seizure (MES) test. In the MES study, four mice were dosed intraperitoneally at 100 mg/kg and challenged thirty minutes later with 50 mA, 0.2 second duration of electroshock. A protection ratio (number of mice protected from tonic extension .div. number of mice tested) was then established.
At the termination of the test, the results were recorded and tabulated.
(§4) Scores for behavioral symptoms, including depression, righting reflex and ataxia, are the actual numbers reported. Protection against MES is reported as a percentage. Since four animals were involved in this test, the findings are 0% for none protected, 25% for one out of four, etc. […] In order to maintain reasonable uniformity in the reporting of results, each entry corresponds to a dosage level of 100 mg/kg. Any variations from that dosage are indicated.

[2] = NPP maximal electroshock seizure (MES) protection; format: in vivo, white male mice of the Carworth Farm Strain CF-1; conditions: Mus musculus, ip; for responders at 100 mg/kg: 0.5 h, at 100 mg/kg i.p., four mice, 30 min after dosing
Method: as §1, §3, §4

[3] = NPP lethality (estimated LD50); conditions: mouse, in vivo, ip
Method: as §1, §2, §4

[4] = NINCDS Subcutaneous Pentylenetetrazol (Metrazol) Seizure Threshold Test (scMet); format: in vivo, mice; conditions: Mus musculus, sc, read-out: scMet: dosage level that elicited protection
Method: 1. Neurological Activity Tests. […] Compounds were evaluated for anticonvulsant activity in two seizure models, the maximal electroshock seizure (MES) test and the subcutaneous pentylenetetrazol (Metrazol) seizure threshold (scMet) test.
Subcutaneous Pentylenetetrazol (Metrazol) Seizure Threshold Test (scMet) produces threshold (clonic) seizures. Pentylenetetrazol is administered subcutaneously as a threshold 0.5% solution (in 0.9% sodium chloride) in a loose fold of skin on the back of the neck in a dose of 85 mg/kg. […] Metrazol is given 10 minutes before the beginning of the test to allow for the delay in onset of Metrazol action. The animal is observed for 30 minutes. Failure to observe even a threshold seizure (a single episode of clonic spasms at least 5 seconds in duration) is defined as protection and indicates anticonvulsant activity in the test compound. These two methods of seizure provocation reliably elicit well-characterizied seizure phenomena.
The ability of a compound to prevent maximal electroshock seizures is believed to correlate with its ability to prevent the spread of seizure discharge through neural tissue. Activity against maximal electroshock seizures is thought to indicate potential efficacy in the treatment of major motor (grand mal) seizures. […] Selective action in the test is believed to indicate potential efficacy against absence (petit mal) seizures.
As described earlier, the MES, scMet and Rotorod tests were performed one-half hour and four hours after administration of each compound.
In the Secondary Evaluation, median effective doses (ED50) are determined in the MES, scMet and Rotorod assays using the procedures defined in Pharmacology, 95, 99-113 (1949).
Separate groups of animals are used for each time period. The times of peak toxic and anticonvulsant effect are taken from the resulting graph of percent of animals responding vs. time, and the determinations of median effective doses are performed at those times.

[5] = at 30 mg/kg (value in parentheses)
[6] = after 4 hr (value in parentheses)

Row | Structure (SMILES) | responders at 100 mg/kg [2] [%] | LD50 at 48 h [3] [mg/kg] | CNS Depression ([1]; at 100 mg/kg) | further results
1 | Cc1ccccc1-n1c(CC(=O)C(F)(F)F)nc2ccccc2c1=O [IIIa, 2-(3,3,3-Trifluoroacetonyl)-3-o-tolyl-4(3H)-quinazoline] | 50 | > 562 |  | CNS Depression [1, 5]: 4; Ataxia ([1]; at 100 mg/kg): 2
2 | Cc1ccc(-n2c(CC(=O)c3ccncc3)nc3ccccc3c2=O)cc1 [IVl, 2-[2-Oxo-2-(4 pyridyl)ethyl]-3-p-tolyl-4(3H)-quinazolinone] |  |  |  | minimal effective dose [4, 6]: 300 mg/kg
3 | COc1ccc(C(=O)Cc2nc3ccccc3c(=O)n2-c2ccccc2C)cc1 [IIIi, 2-[2-Oxo-2-(4-methoxyphenyl)ethyl]-3-o-tolyl-4(3H)-quinazolinone] | 0 | > 562 | 2 | Depression [1]: 4
4 | O=C(Cc1nc2ccccc2c(=O)n1-c1ccccc1)C(F)(F)F [IVe, 2-(3,3,3-Trifluoroacetonyl)-3-phenyl-4(3H)-quinazolinone] | 0 | 562 | 2 | 
5 | Cc1ccccc1-n1c(CC(=O)c2ccccc2)nc2ccccc2c1=O [IIIg, 2-(2-Oxo-2-phenylethyl)-3-o-tolyl-4(3H)-quinazolinone] | 0 | > 562 | 4 | CNS Depression [1, 5]: 4
6 | Cc1ccc(-n2c(CC(=O)C(F)(F)F)nc3ccccc3c2=O)cc1 [IVi, 2-(3,3,3-Trifluoroacetonyl)-3-p-tolyl-4(3H)-quinazolinone] | 100 | 562 | 4 | Ataxia ([1]; at 100 mg/kg): 2
7 | O=C(Cc1nc2ccccc2c(=O)n1-c1ccccc1Cl)c1ccccn1 [IVb, 2-[2-Oxo-2-(2-pyridyl)ethyl]-3-o-chlorophenyl-4(3H)-quinazolinone] | 0 | 562 | 0 | Depression [1]: 2
8 | Cc1nc2ccccc2c(=O)n1-c1ccccc1 [phenyl H, 2-methyl-3-phenyl-4(3H)-quinazolinone, reference compound] |  | 562 | 8 | CNS Depression [1, 5]: 4; Ataxia ([1]; at 100 mg/kg): 8; Righting reflex ([1]; at 100 mg/kg): 8; responders at 30 mg/kg ([2]; conducted at 30 mg/kg i.p.): 0%
9 | Cn1c(CC(=O)c2cccnc2)nc2ccccc2c1=O [IVs, 2-[2-Oxo-2-(3-pyridyl)ethyl]-3-methyl-4(3H)-quinazolindone] | 0 | 422 | 4 | 
10 | Cc1ccccc1-n1c(CC(=O)c2ccc(Cl)cc2)nc2ccccc2c1=O [IIIh, 2-[2-Oxo-2-(4-chlorophenyl)ethyl]-3-o-tolyl-4(3H)-quinazolinone] | 0 | 316 | 0 | Depression [1]: 4
11 | Cc1ccccc1-n1c(CCc2ccccc2)nc2ccccc2c1=O [CH2 C6 H5, reference compound] |  |  |  | minimal effective dose ([4]; after 0.5 hr): 300 mg/kg; minimal effective dose [4, 6]: 300 mg/kg
12 | Cc1ccccc1-n1c(CC(=O)C=Cc2ccccc2)nc2ccccc2c1=O [IIIf, 2-(2-Oxo-4-phenylbut-3-enyl)-3-o-tolyl-4(3H)-quinazolinone] | 25 | > 562 | 4 | CNS Depression [1, 5]: 2
13 | COc1cc(C(=O)Cc2nc3ccccc3c(=O)n2-c2ccccc2C)cc(OC)c1OC [IIIj, 2-[2-Oxo-2-(3,4,5-trimethoxyphenyl)ethyl]-3-o-tolyl-4(3H)-quinazolinone] | 0 | > 562 | 2 | Depression [1]: 4
14 | Cn1c(CC(=O)c2ccccc2)nc2ccccc2c1=O [IVr, 2-(2-Oxo-2-phenylethyl)-3-methyl-4(3H)-quinazolinone] |  |  |  | minimal effective dose [4, 6]: 300 mg/kg
15 | O=C(Cc1nc2ccccc2c(=O)n1-c1ccccc1)c1ccncc1 [IVh, 2-[2-Oxo-2-(4-pyridyl)ethyl]-3-phenyl-4(3H)-quinazolinone] |  |  |  | minimal effective dose ([4]; after 0.5 hr): 100 mg/kg
